Measurements: PMC11500415, “Chemical inhibition of stomatal differentiation by perturbation of the master-regulatory bHLH heterodimer via an ACT-Like domain” (Nature Communications, 2024)
Where “and” joins values, the source holds several entries; their conditions need not be identical. Identical values can stand only once. Like-named read-outs stand apart in the source and are kept apart here.

Legend:
FAMA_ACTL = target: T1, FAMA_ACTL (Arabidopsis thaliana, UniProt Q56YJ8); experiment: BLI direct binding; set-up: species or system A. thaliana
T1 construct: FAMA-ACTL (306-414); GST (N, cleaved yes); made in house; host or cells: E. coli BL21
T1 sequence (Q56YJ8 306-414): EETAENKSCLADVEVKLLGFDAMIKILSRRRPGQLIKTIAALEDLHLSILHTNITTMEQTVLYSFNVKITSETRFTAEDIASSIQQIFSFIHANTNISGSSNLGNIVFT
Source text: (§1) A. thaliana SCRM (1-494), ΔNSPCH (98-364), MUTE (1-202), ΔNFAMA (190-414), MUTEΔC (1-114), MUTER133A_R134A, MUTEE162A_E163A, MUTER133A_R134A_E162A_E163A, SCRM-ACTL (405-494), MUTE-ACTL (114-202), SPCH-ACTL (285-364), FAMA-ACTL (306-414), MUTE_ACTLR133A_R134A, MUTE_ACTLE162A_E163A, MUTE_ACTLR133A_R134A_E162A_E163A were cloned into pGEX-4T-1 vector with an N-terminal GST tag and a thrombin cleavage sequence. For protein expression, the constructs were transformed into E. coli strain BL21. For each transformant, a single colony was selected and incubated in 10 ml LB liquid media. The overnight-incubated E. coli suspensions were transferred to 1 L LB medium and incubated at 37 °C for around 2 h until the OD600 reached 0.4–0.6. The isopropyl β-D-1-thiogalactopyranoside ([…] of final concentration) was added to the cultures and the strains were incubated at 22 °C for a further 18 h. GST-fused proteins were purified using glutathione agarose resin. The soluble portion of the cell lysate was loaded onto a GST-Sepharose column. Nonspecifically bound proteins were removed by washing the column with 20 mM Tris pH 8.0, 200 mM NaCl. The bound GST-fused protein was eluted with 10 mm glutathione and 20 mM Tris pH 8.0, 200 mM NaCl. The GST-fused proteins were exchanged with phosphate-buffered saline buffer, and then the solution was treated with 50 μg of thrombin for 10–12 h at 16 ^οC. The GST portion of the protein was cleaved during thrombin digestion, and then the whole solution was reloaded onto the glutathione S-transferase column to obtain pure protein. The purified proteins were further purified by gel filtration on a Superdex-200 (GE) column using fast protein liquid chromatography and phosphate buffer (pH 7.2) as the eluent. The purity of the protein was checked by SDS-PAGE. For detailed lists of oligo DNA and plasmid information, see Supplementary Tables 5, 6, respectively.
(§2) The binding affinities of SCRM to MUTE / MUTER133A_R134A / MUTEE162A_E163A / MUTER133A_R134A_E162A_E163A in presence and absence of Stomidazolone (3) and its analogues (AYSJ1059 (5) and AYSJ1061 (6)), and Stomidazolone / AYSJ1059 / AYSJ1061 interactions with GST-tagged SCRM, MUTE, SPCH, FAMA, MUTE ΔACTL, MUTE_ACTL, SCRM_ACTL, SPCH_ACTL and FAMA_ACTL, MUTER133A_134A, MUTEE162A_E163A, MUTER133A_R134A_E162A_E163A were measured using the Octet Red96 system (ForteBio, Pall Life Sciences) following the manufacturer’s protocols. The optical probes coated with anti-GST were first loaded with 500 nM GST tagged proteins before kinetic binding analyses. The experiment was performed in 96-well plates maintained at 30 °C. Each well was loaded with 200 μL reaction volume for the experiment. The binding buffer used in these experiments contained 1× PBS supplemented with 2% DMSO, 0.02% Tween20. The concentrations of the Stomidazolone as the analyte in the binding buffer were 100, 50, 25, 12.5, 6.25, 3.12, and 1.56 μM. There was no binding of the analytes to the unloaded probes as shown by the control wells. Binding kinetics to all seven concentrations of the analytes were measured simultaneously using default parameters on the instrument. The data were analyzed using the Octet data analysis software. The association and dissociation curves were fit with the 1:1 homogeneous ligand model. The kobs (observed rate constant) values were used to calculate Kd, with steady-state analysis of the direct binding. See Supplementary Table 3 for details.

MUTE_ACTLE162A_E163A = target: T2, MUTE_ACTLE162A_E163A (Arabidopsis thaliana, UniProt Q9M8K6, E162A/E163A); experiment: BLI direct binding; set-up: species or system A. thaliana; details: for koff: read-out: kdis(1/s), MUTE_E162A_E163A on Anti-GST sensor
T2 construct: MUTE-ACTL (114-202); made in house; host or cells: E. coli BL21
T2 sequence (Q9M8K6 114-202 E162A/E163A): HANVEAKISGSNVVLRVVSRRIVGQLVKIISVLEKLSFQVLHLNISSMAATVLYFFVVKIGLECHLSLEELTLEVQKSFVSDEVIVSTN
Source text: as §1, §2

[1] = MUTE_E162A_E163A on Anti-GST sensor, Stomid 3.12 µM, rep-1, rep-2
[2] = MUTE_E162A_E163A on Anti-GST sensor, Stomid 6.25 µM, rep-1, rep-2
[3] = MUTE_E162A_E163A on Anti-GST sensor, Stomid 12.5 µM, rep-1, rep-2
[4] = MUTE_E162A_E163A on Anti-GST sensor, Stomid 25 µM, rep-1, rep-2
[5] = MUTE_E162A_E163A on Anti-GST sensor, Stomid 50 µM, rep-1, rep-2
[6] = MUTE_E162A_E163A on Anti-GST sensor, Stomid 100 µM, rep-1, rep-2
[7] = MUTE_E162A_E163A on Anti-GST sensor, Stomid 200 µM, rep-1, rep-2

SMILES: O=C1C(c2ccccc2)=NC(NS(=O)(=O)c2ccccc2)(c2ccccc2)N1S(=O)(=O)c1ccccc1 (centres unmarked) [Stomidazolone]
- Kd (FAMA_ACTL; BLI steady state, read-out: KD (SS)): 105 ± 13.8 µM
- Kd (FAMA_ACTL; BLI, read-out: KD): 95.2 ± 3.5 µM
- Kd (MUTE_ACTLE162A_E163A; BLI steady state, MUTE_ACTL E162A_E163A, read-out: KD (SS)): 125 ± 12 µM
- Kd (MUTE_ACTLE162A_E163A; BLI, MUTE_ACTL E162A_E163A, read-out: KD): 88.3 ± 5.5 µM
- RMax (MUTE_ACTLE162A_E163A; [1]): 0.032 and 0.02
- Response (MUTE_ACTLE162A_E163A; [1]): 0.0312 and 0.0195
- Kd (MUTE_ACTLE162A_E163A; MUTE_E162A_E163A on Anti-GST sensor, Stomid 3.12 µM, rep-1, rep-2, read-out: KD): 86.2 µM
- RMax (MUTE_ACTLE162A_E163A; [2]): 0.055 and 0.045
- Req/Rmax(%) (MUTE_ACTLE162A_E163A; [2]): 86.2% and 99.9%
- Response (MUTE_ACTLE162A_E163A; [2]): 0.053 and 0.041
- kdis (MUTE_ACTLE162A_E163A; [2]): 0.25 s⁻¹
- kon (MUTE_ACTLE162A_E163A; [2]): 2770 M⁻¹ s⁻¹
- Kd (MUTE_ACTLE162A_E163A; MUTE_E162A_E163A on Anti-GST sensor, Stomid 6.25 µM, rep-1, rep-2, read-out: KD): 84.8 µM and 90.2 µM
- RMax (MUTE_ACTLE162A_E163A; [3]): 0.07 and 0.08
- Req/Rmax(%) (MUTE_ACTLE162A_E163A; [3]): 86.2% and 95.1%
- Response (MUTE_ACTLE162A_E163A; [3]): 0.065 and 0.078
- kobs (MUTE_ACTLE162A_E163A; [3]): 0.00218 s⁻¹ and 0.00344 s⁻¹
- kon (MUTE_ACTLE162A_E163A; [3]): 2790 M⁻¹ s⁻¹
- Kd (MUTE_ACTLE162A_E163A; MUTE_E162A_E163A on Anti-GST sensor, Stomid 12.5 µM, rep-1, rep-2, read-out: KD): 85.4 µM and 87.9 µM
- Req/Rmax(%) (MUTE_ACTLE162A_E163A; [4]): 83.8% and 88.2%
- kdis (MUTE_ACTLE162A_E163A; [4]): 0.251 s⁻¹
- kobs (MUTE_ACTLE162A_E163A; [4]): 0.0028 s⁻¹ and 0.00329 s⁻¹
- kon (MUTE_ACTLE162A_E163A; [4]): 2870 M⁻¹ s⁻¹
- Kd (MUTE_ACTLE162A_E163A; MUTE_E162A_E163A on Anti-GST sensor, Stomid 25 µM, rep-1, rep-2, read-out: KD): 87.7 µM and 87.3 µM
- RMax (MUTE_ACTLE162A_E163A; [5]): 0.145 and 0.18
- Req/Rmax(%) (MUTE_ACTLE162A_E163A; [5]): 89.7% and 82.4%
- Response (MUTE_ACTLE162A_E163A; [5]): 0.141 and 0.171
- kobs (MUTE_ACTLE162A_E163A; [5]): 0.00431 s⁻¹ and 0.00272 s⁻¹
- kon (MUTE_ACTLE162A_E163A; [5]): 2770 M⁻¹ s⁻¹
- Kd (MUTE_ACTLE162A_E163A; MUTE_E162A_E163A on Anti-GST sensor, Stomid 50 µM, rep-1, rep-2, read-out: KD): 87.7 µM and 89 µM
- RMax (MUTE_ACTLE162A_E163A; [6]): 0.256 and 0.23
- Req/Rmax(%) (MUTE_ACTLE162A_E163A; [6]): 98.6% and 97.1%
- Response (MUTE_ACTLE162A_E163A; [6]): 0.254 and 0.2296
- kdis (MUTE_ACTLE162A_E163A; [6]): 0.248 s⁻¹
- kobs (MUTE_ACTLE162A_E163A; [6]): 0.0129 s⁻¹ and 0.00842 s⁻¹
- kon (MUTE_ACTLE162A_E163A; [6]): 2860 M⁻¹ s⁻¹
- Kd (MUTE_ACTLE162A_E163A; MUTE_E162A_E163A on Anti-GST sensor, Stomid 100 µM, rep-1, rep-2, read-out: KD): 88.7 µM and 86.6 µM
- RMax (MUTE_ACTLE162A_E163A; [7]): 0.275 and 0.3
- Req/Rmax(%) (MUTE_ACTLE162A_E163A; [7]): 100%
- Response (MUTE_ACTLE162A_E163A; [7]): 0.272 and 0.292
- kobs (MUTE_ACTLE162A_E163A; [7]): 0.0343 s⁻¹
- Kd (MUTE_ACTLE162A_E163A; MUTE_E162A_E163A on Anti-GST sensor, Stomid 200 µM, rep-1, rep-2, read-out: KD): 89.2 µM
- koff (MUTE_ACTLE162A_E163A; Stomid 3.12 µM, rep-1, rep-2): 0.243 s⁻¹
- koff (MUTE_ACTLE162A_E163A; Stomid 6.25 µM, rep-1, rep-2): 0.242 s⁻¹
- koff (MUTE_ACTLE162A_E163A; Stomid 12.5 µM, rep-1, rep-2): 0.245 s⁻¹
- koff (MUTE_ACTLE162A_E163A; Stomid 25 µM, rep-1, rep-2): 0.246 s⁻¹
- koff (MUTE_ACTLE162A_E163A; Stomid 50 µM, rep-1, rep-2): 0.246 s⁻¹
- koff (MUTE_ACTLE162A_E163A; Stomid 100 µM, rep-1, rep-2): 0.247 s⁻¹
- koff (MUTE_ACTLE162A_E163A; Stomid 200 µM, rep-1, rep-2): 0.25 s⁻¹
- kon (MUTE_ACTLE162A_E163A; read-out: kon(1/Ms), MUTE_E162A_E163A on Anti-GST sensor, Stomid 3.12 µM, rep-1, rep-2): 2830 M⁻¹ s⁻¹
- kon (MUTE_ACTLE162A_E163A; read-out: kon(1/Ms), MUTE_E162A_E163A on Anti-GST sensor, Stomid 6.25 µM, rep-1, rep-2): 2850 M⁻¹ s⁻¹
- kon (MUTE_ACTLE162A_E163A; read-out: kon(1/Ms), MUTE_E162A_E163A on Anti-GST sensor, Stomid 12.5 µM, rep-1, rep-2): 2870 M⁻¹ s⁻¹
- kon (MUTE_ACTLE162A_E163A; read-out: kon(1/Ms), MUTE_E162A_E163A on Anti-GST sensor, Stomid 25 µM, rep-1, rep-2): 2800 M⁻¹ s⁻¹
- kon (MUTE_ACTLE162A_E163A; read-out: kon(1/Ms), MUTE_E162A_E163A on Anti-GST sensor, Stomid 50 µM, rep-1, rep-2): 2810 M⁻¹ s⁻¹
- kon (MUTE_ACTLE162A_E163A; read-out: kon(1/Ms), MUTE_E162A_E163A on Anti-GST sensor, Stomid 100 µM, rep-1, rep-2): 2780 M⁻¹ s⁻¹
- kon (MUTE_ACTLE162A_E163A; read-out: kon(1/Ms), MUTE_E162A_E163A on Anti-GST sensor, Stomid 200 µM, rep-1, rep-2): 2800 M⁻¹ s⁻¹
